Experimental findings from patent publication US9670463B2, “Inhibition and enhancement of reprogramming by chromatin modifying enzymes” (Children's Medical Center Corporation, priority 2011, dated 2017) are described below.

One assay concerns H3K79 methylation. Put plainly: Total H3K79me2 levels in fibroblasts by western blotting. The conditions noted are these: 1 uM to 10 uM concentration range, fibroblasts treated 5 days. The class given is cell-based, human. The source says:
In addition to the shRNA mediated knockdown of Dot1L, a small molecule inhibitor of Dot1L catalytic activity was used to further validate the findings^15. […] Data correspond to the average and s.d.; n=3. *P<0.001 compared untreated fibroblasts.
A general note: In western blotting, separated proteins are transferred to a membrane and probed.

The subject of another assay is dH1f cells. Put plainly: Reprogramming assay, Tra-1-60+ iPSC colonies from dH1f fibroblasts. The class given is cell-based, human. The method, then: dH1f cells were first infected with shRNA viruses at high MOI to ensure all cells received at least one vector (Gauged by puromycin resistance of parallel infected wells). 25,000 shRNA-infected dH1f cells were then plated per well in 12-well plates and infected overnight with either retroviral (MOI 2.5) 7 or lentiviral (Addgene #21162, 21164; 100-200 μl supernatant)29 reprogramming factors. For 2-factor reprogramming, Oct4 and Sox2 viruses were used at an MOI of 5. 6 days later, cells were trypsinized and re-plated 1:4 to 1:6 onto 6-well plates. Medium was changed to hES medium daily until Day 21 when plates were fixed. Small molecule inhibitor of Dot1L, EPZ004777 (a gift from Epizyme, Inc., Cambridge, Mass.) was dissolved in DMSO as a 10 mM stock and was added at the indicated concentrations. For Dot1L rescue experiments, an MSCV-based retroviral vector encoding human Dot1L with or without mutations in the SAM binding site (gifts of Y. Zhang) were mutagenized at the shRNA target site using QuikChange II XL Site-Directed Mutagenesis Kit (Agilent Technologies). In certain experiments, Nanog and Lin28 expression was achieved using lentivirus (Addgene #21163). IMR-90 and MRC5 human diploid fibroblasts were purchased from ATCC and 50000 cells were used in reprogramming experiments. Statistical analysis was performed using a Student's t-test.
Immunostaining of reprogramming plates were performed as described^8. Briefly, cells were fixed with 4% p-formaldehyde and stained with biotin-anti-Tra-1-60 (eBioscience, #13-8863-82, 1:250) and streptavidin horseradish peroxidase (Biolegend, #405210, 1:500) diluted in PBS (3%), FCS (0.3%) Triton X-100. Staining was developed with the Vector labs DAB kit (#SK-4100), and iPSC colonies quantified with ImageJ software. For the characterization of shDot1l-iPS cells, single colonies were put onto MEF coated 96-well plates. The plates were fixed for 20 min with 4% p-formaldehyde/PBS (+/+), washed several times with PBS (+/+) and incubated overnight at 4° C. with primary antibody and Hoechst diluted in 3% donkey serum/3% BSA Fraction VII/0.01% Triton X-100/PBS (+/+); Hoechst, Invitrogen #H3570 (1:20,000), Tra-1-81/A488 (BD #560174), SSEA-4/A647 (BD #560219), Tra-1-60/A647 (BD #560122), Nanog, rabbit polyclonal (Abcam #ab21624), Oct4, rabbit polyclonal (Abcam #ab19857). For Nanog and Oct4, donkey anti-rabbit IgG/A555 (Molecular Probes #A31572) secondary antibody was used. After several washes with PBS (+/+), images were acquired using a BD Pathway 435 imager equipped with a ×10 objective.

Another assay relates to Oct4-GFP MEFs. Description: Reprogramming of OSKM transduced Oct4-GFP MEFs, AP+ colonies. The class given is cell-based, mouse. The conditions noted are these: iDot1L 10 um. The method, then: It was assessed whether these observations can be extended to the murine system. It was observed that, similar to human fibroblasts, iDot1L treatment led to 3-fold enhancement of reprogramming of Oct4-GFP MEFs (FIG. 3D). […] Data correspond to the average and s.d.; n=4. *P<0.001 compared untreated MEFs. Representative AP-stained wells and GFP-positive iPS colonies derived from each condition are shown in the lower panel.

Assay [1] concerns iPS-derived secondary MEFs. Description: Reprogramming of inducible iPS-derived secondary MEFs, AP+ colonies. Format: cell-based, mouse. The conditions noted are these: doxycycline, iDot1L 10 um.
The subject of a further assay is H3K79me2. Description: ChIP-seq for H3K79me2 on OSKM expressing fibroblasts. The class given is cell-based, human. As to conditions: iDot1L 10 uM; 6 days after OSKM. The method, then: ChIP-seq was performed as described with slight modifications^25. 300 000 cells were fixed at room temperature in PBS 1% formalin (v/v) for 10 minutes with gentle agitations. Fixation was stopped by the addition of glycine (125 mM final concentration) and agitation for 5 min at room temperature. Fixed cells were washed twice in ice-cold PBS, resuspended in 100 ul of SDS lysis buffer (1% SDS, 10 mM EDTA, 50 mM Tris-HCl, pH 8.1). Chromatin was sheared by sonication to about 100-500 bp fragments using bioruptor (diagenode, Denville, N.J.) and diluted tenfold with dilution buffer (0.01% SDS, 1.1% Triton-X100, 1.2 mM EDTA, 16.7 mM Tris-HCl, pH 8.1, 167 mM NaCl). Antibodies against specific histone modifications was added to sonicated chromatin solution and incubated at 4 degree overnight with gentle agitation. The antibodies used were anti-H3K27me3 (Millipore 07-449) and anti-H3K79me2 (abcam 3594). Immune complexes were collected by incubation with 20 ul of Protein A/G agarose beads (Millipore) for an hour at 4 degree with gentle agitation. […]

Where [2] appears, read: iDot1L 10 uM, OSKM, Tra-1-60+ colonies at 21 days.

The structures appear in SMILES notation.

On to `CC(C)N(CCCNC(=O)Nc1ccc(C(C)(C)C)cc1)C[C@H]1O[C@@H](n2ccc3c(N)ncnc32)[C@H](O)[C@@H]1O.Cl` [EPZ004777], for which, in the assay on H3K79 methylation, the H3K79 methylation result is given as “abrogated H3K79 methylation robustly”. Moreover, in the assay with dH1f cells (OSKM, dH1f cells treated for 21 days, relative to untreated), the “enhancement of reprogramming of human fibroblasts” value is reported as 3-4 fold. In the assay with dH1f cells (iDot1L 10 uM plus Dot1L shRNA, OSKM, 21 days), the “reprogramming efficiency, inhibitor combined with Dot1L knockdown” value is on record as “did not result in a further increase of reprogramming efficiency”. Also, in the assay on dH1f cells (setting [2]), the “reprogramming, pretreatment for 5 days prior to OSKM transduction” value is “no effect” and the “reprogramming, treatment in the first or the second week” value is “sufficient to enhance reprogramming”. Besides, in the assay on dH1f cells (iDot1L 10 uM, Tra-1-60 staining 21 days after reprogramming), the “reprogramming in the absence of Klf4, c-Myc or both” value is “allowed reprogramming in the absence of either Klf4 or Myc and was able to replace both of these exogenous factors”. In addition, in the assay on Oct4-GFP MEFs, the “enhancement of reprogramming of Oct4-GFP MEFs” value is listed as 3 fold. Also, in assay [1], the “reprogramming efficiency of secondary MEFs” value is listed as “increased reprogramming efficiency”. In the assay with H3K79me2, the “K79me2 levels on genes” value is listed as “reduced on almost all genes”.
